Molecules are shown by their SMILES.

From patent US11401246B2, “Triazole glycolate oxidase inhibitors” (CANTERO THERAPEUTICS, INC., priority 2018, dated 2022) come the findings set out here.

For the first assay, the target named is T1, human glycolate oxidase (hGO) (Homo sapiens, UniProt Q9UJM8).
T1 construct: His-tag (6 histidines, pET-15b) (N); made in house; host or cells: E. coli BL21 (DE3)
T1 sequence (Q9UJM8 1-370): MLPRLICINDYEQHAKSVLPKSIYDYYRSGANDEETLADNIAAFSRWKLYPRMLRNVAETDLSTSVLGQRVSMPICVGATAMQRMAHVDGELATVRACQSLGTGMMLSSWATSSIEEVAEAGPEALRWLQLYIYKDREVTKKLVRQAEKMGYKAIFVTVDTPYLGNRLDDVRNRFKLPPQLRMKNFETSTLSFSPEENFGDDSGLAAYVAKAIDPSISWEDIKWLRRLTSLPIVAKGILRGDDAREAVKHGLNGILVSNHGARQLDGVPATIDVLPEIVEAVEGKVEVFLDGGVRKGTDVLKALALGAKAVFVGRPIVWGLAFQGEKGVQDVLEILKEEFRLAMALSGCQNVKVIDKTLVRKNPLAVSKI
Put plainly: In vitro inhibition of human glycolate oxidase (enzymatic assay, HRP-coupled Trinder reaction).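 For % Inhibition: values are IC50 potency bins despite the % Inhibition label.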 In kind it is biochemical.
Conditions: not given
From the text:
The catalytic reactions used for assaying glycolate oxidase activity in the presence of compounds according to the present disclosure are outlined in FIG. 2. Glycolate oxidase (GO)-catalyzed conversion of glycolate to glyoxylate (top reaction), with the concomitant reduction of the cofactor flavin mononucleotide (FMN), uses molecular oxygen (O2) for recovering its oxidative state, releasing hydrogen peroxide (H2O2). The Trinder reaction (bottom reaction), in which horseradish peroxidase (HRP) uses hydrogen peroxide, 4-aminoantipyrine and a phenol derivative (sulphonated DCIP) to generate a quinoneimine dye that is spectrophotometrically measured.
Human glycolate oxidase (hGO) expression. BL21 (DE3) E. coli transformed with recombinant pET-15b expression vector with the N-terminal His-tag human Hao1 cDNA was grown in LB medium in the presence of 0.1 mg/ml ampicillin. For purification of recombinant human glycolate oxidase (hGO) expressed in BL21 E. coli, bacteria pellets were thawed and re-suspended in 2 ml lysis buffer (50 mM NaH2PO4, 300 mM NaCl, 10 mM imidazole, 50 μM FMN, pH 7.5), and then treated for 30 minutes with 1 mM PMSF for protease inhibition, 0.1% Triton X-100 and 0.2 mg/ml lysozyme to break cellular membranes. After sonication, cells were centrifuged and the supernatant containing the total cellular extract (pre-column fraction) was loaded into a Ni-NTA agarose column and incubated for 30 minutes at 4° C. to allow binding of the 6 histidine tail of recombinant GO protein to the nickel ions. The column was washed with two bed volumes of lysis buffer with 20 mM imidazole to eliminate unbound proteins (wash fraction). GO was eluted using the same buffer with 300 mM imidazole. Fraction containing purified GO was dialyzed against 300 ml of dialysis buffer (50 mM NaH2PO4, 300 mM NaCl, pH 7.5) at 4° C. in agitation overnight, and then kept at 4° C. in darkness. Protein were quantified by the bicinchoninic acid (BCA) assay.
Enzymatic assays. Enzymatic activity of hGO was determined in the presence of glycolate as substrate (40 mM glycolic acid) and phosphate buffer (50 mM KPO4, 0.1 mM EDTA, pH 7). The production of glyoxylate was indirectly measured by the quantification of hydrogen peroxide formed during the first oxidation reaction. […] Enzymatic activity was calculated at 1 minute after initiation of the Trinder reaction.
Regarding `O=C(O)c1nn[nH]c1Oc1ccc(Cl)cc1` [Example 36, 5-(4-chlorophenoxy)-1H-1,2,3-triazole-4-carboxylic Acid], the IC50 is under 100 nM.
On the same count and under the same terms, then `O=C(O)c1nn[nH]c1Oc1ccc(-c2ccccc2)cc1` [Example 42, 5-([1,1′-biphenyl]-4-yloxy)-1H-1,2,3-triazole-4-carboxylic Acid], with 100 to 200 nM.

Still in this assay, the particulars now being: recombinant hGO, 40 mM glycolic acid, pH 7, read at 515 nm, 1 minute after initiation of Trinder reaction; read-out: % Inhibition.
Turning to `CC(C)Cc1ccc(-c2ccc(Oc3[nH]nnc3C(=O)O)cc2)cc1` [Example 108, 5-((4′-isobutyl-[1,1′-biphenyl]-4-yl)oxy)-1H-1,2,3-triazole-4-carboxylic Acid], the IC50 is over 200 nM.
Still for that read-out and setting: for `CC(C)c1cccc(-c2ccc(Oc3[nH]nnc3C(=O)O)cc2)c1` [Example 109, 5-((3′-isopropyl-[1,1′-biphenyl]-4-yl)oxy)-1H-1,2,3-triazole-4-carboxylic Acid] the value was over 200 nM; for `O=C(O)c1nn[nH]c1Oc1ccc(-c2ccc(-c3ccncc3)cc2)cc1` [Example 15, 5-((4′-(pyridin-4-yl)-[1,1′-biphenyl]-4-yl)oxy)-1H-1,2,3-triazole-4-carboxylic Acid], under 100 nM.
On the same count and under the same terms, then `O=C(O)c1nn[nH]c1Oc1ccc(-c2cccnc2F)cc1` [Example 18, 5-(4-(2-fluoropyridin-3-yl)phenoxy)-1H-1,2,3-triazole-4-carboxylic Acid], with under 100 nM.
As to `O=C(O)c1nn[nH]c1Oc1ccc(-c2ccc(C(F)(F)F)cc2)cc1F` [Example 104, 5-((3-fluoro-4′-(trifluoromethyl)-[1,1′-biphenyl]-4-yl)oxy)-1H-1,2,3-triazole-4-carboxylic Acid], the IC50 fell in the range of 100 to 200 nM.
On to `O=C(O)c1nn[nH]c1Oc1cccc(-c2cccnc2F)c1` [Example 61, 5-(3-(2-fluoropyridin-3-yl)phenoxy)-1H-1,2,3-triazole-4-carboxylic Acid], for which the IC50 is under 100 nM.
Take `O=C(O)c1nn[nH]c1Oc1ccc(-c2ccnc3ccccc23)cc1` [Example 83, 5-(4-(quinolin-4-yl)phenoxy)-1H-1,2,3-triazole-4-carboxylic Acid]: the IC50 was under 100 nM.
For `CC(C)(C)c1ccc(-c2ccc(Oc3[nH]nnc3C(=O)O)cc2)cc1` [Example 35, 5-((4′-(tert-butyl)-[1,1′-biphenyl]-4-yl)oxy)-1H-1,2,3-triazole-4-carboxylic Acid], the IC50 was in the range of 100 to 200 nM.
Still for that read-out and setting: then `O=C(O)c1nn[nH]c1Oc1ccc(-c2cc(F)c(F)c(F)c2)cc1` [Example 110, 5-((3′,4′,5′-trifluoro-[1,1′-biphenyl]-4-yl)oxy)-1H-1,2,3-triazole-4-carboxylic Acid], with 100 to 200 nM; and `O=C1CCC(c2ccc(Oc3[nH]nnc3C(=O)O)cc2)CC1` [Example 77, 5-(4-(4-oxocyclohexyl)phenoxy)-1H-1,2,3-triazole-4-carboxylic Acid], with 100 to 200 nM; and `O=C(O)c1nn[nH]c1Oc1ccc(-c2cccc(OC(F)F)c2)nc1` [Example 44, 5-((6-(3-(difluoromethoxy)phenyl)pyridin-3-yl)oxy)-1H-1,2,3-triazole-4-carboxylic Acid], with 100 to 200 nM.
Same read-out and setting: then `O=C(O)c1nn[nH]c1Oc1ccc(-c2cn[nH]c2)cc1` [Example 11, 5-(4-(1H-pyrazol-4-yl)phenoxy)-1H-1,2,3-triazole-4-carboxylic Acid], with 100 to 200 nM; and `CN1CCN(c2ccc(Oc3[nH]nnc3C(=O)O)cc2)CC1` [Example 65, 5-(4-(4-methylpiperazin-1-yl)phenoxy)-1H-1,2,3-triazole-4-carboxylic Acid], with over 200 nM; and `O=C(O)c1nn[nH]c1Oc1ccc(-c2ccc3nccn3c2)cc1` [Example 27, 5-(4-(imidazo[1,2-a]pyridin-6-yl)phenoxy)-1H-1,2,3-triazole-4-carboxylic Acid], with 100 to 200 nM.
Still for that read-out and setting: then `O=C(O)c1nn[nH]c1Oc1ccc(-c2ccc(C3CC3(F)F)cc2)cc1` (stereo not shown) [Example 123, 5-((4′-(2,2-difluorocyclopropyl)-[1,1′-biphenyl]-4-yl)oxy)-1H-1,2,3-triazole-4-carboxylic Acid], with 100 to 200 nM.
Consider `O=C(O)c1nn[nH]c1Oc1ccc(-c2ccc(F)c(Cl)c2)cc1` [Example 33, 5-((3′-chloro-4′-fluoro-[1,1′-biphenyl]-4-yl)oxy)-1H-1,2,3-triazole-4-carboxylic Acid], for which the IC50 is under 100 nM.
Same read-out and setting: for `O=C(O)c1nn[nH]c1Oc1cccnc1Br` [Example 66, 5-((2-bromopyridin-3-yl)oxy)-1H-1,2,3-triazole-4-carboxylic Acid] the value was over 200 nM; for `NC(=O)c1ccc(Oc2[nH]nnc2C(=O)O)cc1` [Example 56, 5-(4-carbamoylphenoxy)-1H-1,2,3-triazole-4-carboxylic Acid], over 200 nM; for `O=C(O)c1nn[nH]c1Oc1ccc(-c2cnccn2)cc1` [Example 37, 5-(4-(pyrazin-2-yl)phenoxy)-1H-1,2,3-triazole-4-carboxylic Acid], under 100 nM.
The same measure, in the same setting: for `Cc1cc(-c2ccc(-c3ccc(Oc4[nH]nnc4C(=O)O)cc3)cc2)ccn1` [Example 129, 5˜((4′-(2-methylpyridin-4˜yl)-[1,1′-biphenyl]-4-yl)oxy)-1H-1,2,3-triazole-4-carboxylic Acid] the value was 100 to 200 nM; for `CC(C)(C)c1ccc(Oc2[nH]nnc2C(=O)O)cc1` [Example 68, 5-(4-(tert-butyl)phenoxy)-1H-1,2,3-triazole-4-carboxylic Acid], over 200 nM.
For `COc1ccc(-c2ccc(Oc3[nH]nnc3C(=O)O)cc2)cn1` [Example 100, 5-(4-(6-methoxypyridin-3-yl)phenoxy)-1H-1,2,3-triazole-4-carboxylic Acid], the IC50 is under 100 nM.
Same read-out and setting: then `O=C(O)c1nn[nH]c1Sc1ccc(-c2ccc(C(F)(F)F)cc2)cc1` [Example 115, 5-((4′-(trifluoromethyl)-[1,1′-biphenyl]-4-yl)thio)-1H-1,2,3-triazole-4-carboxylic Acid], with 100 to 200 nM.
Still for that read-out and setting: then `O=C(O)c1nn[nH]c1Oc1ccccc1Br` [Example 5, 5-(2-bromophenoxy)-1H-1,2,3-triazole-4-carboxylic Acid], with over 200 nM; and `O=C(O)c1nn[nH]c1Oc1ccc(-c2ccoc2)cc1` [Example 41, 5-(4-(furan-3-yl)phenoxy)-1H-1,2,3-triazole-4-carboxylic Acid], with 100 to 200 nM; and `O=C(O)c1nn[nH]c1Oc1ccc(-c2cnn(C3CCC3)c2)cc1` [Example 21, 5-(4-(1-cyclobutyl-1H-pyrazol-4-yl)phenoxy)-1H-1,2,3-triazole-4-carboxylic Acid], with under 100 nM.
Still for that read-out and setting: then `O=C(O)c1nn[nH]c1Oc1ccc(-c2ccncc2)cc1` [Example 19, 5-(4-(pyridin-4-yl)phenoxy)-1H-1,2,3-triazole-4-carboxylic Acid], with under 100 nM; and `O=C(O)c1nn[nH]c1Oc1ccc(Br)c(C(F)(F)F)c1` [Example 95, 5-(4-bromo-3-(trifluoromethyl)phenoxy)-1H-1,2,3-triazole-4-carboxylic Acid], with over 200 nM.
For the compound `O=C(O)c1nn[nH]c1Oc1ccc(C2CCSCC2)cc1` [Example 97, 5-(4-(tetrahydro-2H-thiopyran-4-yl)phenoxy)-1H-1,2,3-triazole-4-carboxylic Acid], the IC50 lay in the range of 100 to 200 nM.
`O=C(O)c1nn[nH]c1Oc1ccc(-c2ccc(C3CC3)cc2)cc1` [Example 121, 5-((4′-cyclopropyl-[1,1′-biphenyl]-4-yl)oxy)-1H-1,2,3-triazole-4-carboxylic Acid]: the IC50 is under 100 nM.
On the same count and under the same terms, for `O=C(O)c1nn[nH]c1Oc1ccc(C23CC(C2)C3)cc1` [Example 76, 5-(4-(3-bicyclo[1.1.1]pentan-1-yl)phenoxy)-1H-1,2,3-triazole-4-carboxylic Acid] the value was under 100 nM.
As for `CS(=O)(=O)c1ccc(-c2ccc(Oc3[nH]nnc3C(=O)O)c(F)c2)cc1` [Example 105, 5-((3-fluoro-4′-(methylsulfonyl)-[1,1′-biphenyl]-4-yl)oxy)-1H-1,2,3-triazole-4-carboxylic Acid], the IC50 lay in the range of 100 to 200 nM.
